Test results published in patent US20260015325A1, “ALKOXY HETEROARYL- CARBOXAMIDE OR THIOAMIDE COMPOUNDS” (SYNGENTA CROP PROTECTION AG, priority 2022, published 2026).

Experiments:
Assay type in all cases: in vivo
[1] = tested on: Tetranychus urticae (Two-Spotted Spider Mite); assay: whole plant or invertebrate; conditions: foliar, 192 h, application rate of 200 ppm, mixed population (mobile stages) on sprayed bean leaf discs, 8 days after infestation, read-out: mortality
Method: Example B11: Tetranychus urticae (Two-Spotted Spider Mite): Feeding/Contact Activity
Bean leaf discs on agar in 24-well microtiter plates were sprayed with aqueous test solutions prepared from 10′000 ppm DMSO stock solutions. After drying the leaf discs were infested with a mite population of mixed ages. The samples were assessed for mortality on mixed population (mobile stages) 8 days after infestation.

[2] = tested on: Bemisia tabaci (Cotton White Fly); assay: Bemisia tabaci (Cotton White Fly): feeding/contact activity, cotton leaf discs; conditions: foliar, 144 h, application rate of 200 ppm, adult white flies on sprayed cotton leaf discs, 6 days after incubation, read-out: mortality
Method: Example B1: Bemisia tabaci (Cotton White Fly): Feeding/Contact Activity
Cotton leaf discs were placed on agar in 24-well microtiter plates and sprayed with aqueous test solutions prepared from 10′000 ppm DMSO stock solutions. After drying the leaf discs were infested with adult white flies. The samples were checked for mortality 6 days after incubation.

[3] = tested on: Euschistus heros (Neotropical Brown Stink Bug); assay: Euschistus heros (Neotropical Brown Stink Bug), soybean leaves; conditions: 120 h, application rate of 200 ppm, N2 nymphs on sprayed soybean leaves, 5 days after infestation, read-out: effect in at least one of the two categories (mortality or growth inhibition)
Method: Example B4: Euschistus heros (Neotropical Brown Stink Bug)
Soybean leaves on agar in 24-well microtiter plates were sprayed with aqueous test solutions prepared from 10′000 ppm DMSO stock solutions. After drying the leaves were infested with N2 nymphs. The samples were assessed for mortality and growth inhibition in comparison to untreated samples 5 days after infestation.

[4] = tested on: Chilo suppressalis (Striped Rice Stemborer); assay: Chilo suppressalis (Striped Rice Stemborer), artificial diet; conditions: 144 h, application rate of 200 ppm, L2 larvae on treated artificial diet, 6 days after infestation, read-out: control (at least one of mortality, anti-feedant effect, growth inhibition)
Method: Example B2: Chilo suppressalis (Striped Rice Stemborer)
24-well microtiter plates with artificial diet were treated with aqueous test solutions prepared from 10′000 ppm DMSO stock solutions by pipetting. After drying, the plates were infested with L2 larvae (6-8 per well). The samples were assessed for mortality, anti-feeding effect, and growth inhibition in comparison to untreated samples 6 days after infestation. Control of Chilo suppressalis by a test sample is given when at least one of the categories mortality, anti-feedant effect, and growth inhibition is higher than the untreated sample.

[5] = tested on: Myzus persicae (Green Peach Aphid); assay: Myzus persicae (Green Peach Aphid): intrinsic activity, sucrose solution; conditions: 120 h, test rate of 12 ppm, intrinsic, mixed with sucrose solution under Parafilm, 5 days after infestation, read-out: mortality
In short: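 Compounds from 10′000 ppm DMSO stocks mixed with sucrose solution in wells sealed with Parafilm; aphid-infested pea seedlings placed on the Parafilm and the assembly inverted so aphids feed through the membrane. Mortality assessed 5 days after infestation.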

[6] = tested on: Myzus persicae (Green Peach Aphid); assay: Myzus persicae (Green Peach Aphid): systemic activity, pea seedlings; conditions: 144 h, test rate of 24 ppm, systemic, roots of infested pea seedlings in test solution, 6 days, read-out: mortality
Method: Example B7: Myzus persicae (Green Peach Aphid). Systemic Activity
Roots of pea seedlings infested with an aphid population of mixed ages were placed directly into aqueous test solutions prepared from 10′000 DMSO stock solutions. The samples were assessed for mortality 6 days after placing seedlings into test solutions.

[7] = tested on: Frankliniella occidentalis (Western Flower Thrips); assay: Frankliniella occidentalis (Western Flower Thrips): feeding/contact activity, sunflower leaf discs; conditions: foliar, 168 h, application rate of 200 ppm, mixed ages on sprayed sunflower leaf discs, 7 days after infestation
Method: Example B5: Frankliniella occidentalis (Western Flower Thrips): Feeding/Contact Activity
Sunflower leaf discs were placed on agar in 24-well microtiter plates and sprayed with aqueous test solutions prepared from […] stock solutions. After drying the leaf discs were infested with a Frankliniella population of mixed ages. The samples were assessed for mortality 7 days after infestation.

[8] = tested on: Myzus persicae (Green Peach Aphid); assay: Myzus persicae (Green Peach Aphid): feeding/contact activity, sunflower leaf discs; conditions: foliar, 144 h, application rate of 200 ppm, mixed ages on sprayed sunflower leaf discs, 6 days after infestation, read-out: mortality
Method: Example B6: Myzus persicae (Green Peach Aphid): Feeding/Contact Activity
Sunflower leaf discs were placed onto agar in a 24-well microtiter plate and sprayed with aqueous test solutions prepared from 10′000 ppm DMSO stock solutions. After drying, the leaf discs were infested with an aphid population of mixed ages. The samples were assessed for mortality 6 days after infestation.

[9] = tested on: Diabrotica balteata (Corn Root Worm); assay: whole plant or invertebrate; conditions: 96 h, application rate of 200 ppm, L2 larvae on sprayed maize sprouts, 4 days after infestation, read-out: effect in at least one of the two categories (mortality or growth inhibition)
Method: Example B3: Diabrotica balteata (Corn Root Worm)
Maize sprouts placed onto an agar layer in 24-well microtiter plates were treated with aqueous test solutions prepared from 10′000 ppm DMSO stock solutions by spraying. After drying, the plates were infested with L2 larvae (6 to 10 per well). The samples were assessed for mortality and growth inhibition in comparison to untreated samples 4 days after infestation.

[10] = tested on: Plutella xylostella (Diamond Back Moth); assay: Plutella xylostella (Diamond Back Moth), artificial diet; conditions: 192 h, application rate of 200 ppm, eggs on treated artificial diet, 8 days after infestation, read-out: effect in at least one of the two categories (mortality or growth inhibition)
Method: Example B9: Plutella xylostella (Diamond Back Moth)
24-well microtiter plates with artificial diet were treated with aqueous test solutions prepared from 10′000 ppm DMSO stock solutions by pipetting. After drying, Plutella eggs were pipetted through a plastic stencil onto a gel blotting paper and the plate was closed with it. The samples were assessed for mortality and growth inhibition in comparison to untreated samples 8 days after infestation.

[11] = tested on: Spodoptera littoralis; assay: Spodoptera littoralis (Egyptian Cotton Leaf Worm), cotton leaf discs; conditions: foliar, 72 h, application rate of 200 ppm, L1 larvae on sprayed cotton leaf discs, 3 days after infestation, read-out: control (at least one of mortality, anti-feedant effect, growth inhibition)
Method: Example B10: Spodoptera littoralis (Eaytian Cotton Leaf Worm)
Cotton leaf discs were placed onto agar in 24-well microtiter plates and sprayed with aqueous test solutions prepared from 10′000 ppm DMSO stock solutions. After drying the leaf discs were infested with five L1 larvae. The samples were assessed for mortality, anti-feeding effect, and growth inhibition in comparison to untreated samples 3 days after infestation. Control of Spodoptera littoralis by a test sample is given when at least one of the categories mortality, anti-feedant effect, and growth inhibition is higher than the untreated sample.

COCN([C@@H](C)COc1cnc(Cl)c(C(=O)NCC(F)(F)F)c1)S(=O)(=O)C(F)(F)F [Compound P-63, 2-chloro-5-[(2S)-2-[methoxymethyl(trifluoromethylsulfonyl)amino]propoxy]-N-(2,2,2-trifluoroethyl)pyridine-3-carboxamide]
≥ 80%: mortality at 200 ppm [1] | mortality at 200 ppm [2] | percent effect (mortality or growth inhibition) at 200 ppm [3] | percent control (mortality, anti-feedant effect or growth inhibition) at 200 ppm [4] | mortality at 12 ppm [5]

COCN([C@@H](C)COc1cnc(Cl)c(C(=O)NC2CC2)c1)S(=O)(=O)C(F)(F)F [Compound P-64, 2-chloro-N-cyclopropyl-5-[(2S)-2-[methoxymethyl(trifluoromethylsulfonyl)amino]propoxy]pyridine-3-carboxamide]
≥ 80%: mortality at 200 ppm [1] | mortality at 200 ppm [2] | mortality at 24 ppm [6] | percent effect (mortality or growth inhibition) at 200 ppm [3] | mortality at 12 ppm [5] | mortality at 200 ppm [7] | mortality at 200 ppm [8] | percent effect (mortality or growth inhibition) at 200 ppm [9]

CCN1OC[C@@H](NC(=O)c2cc(OC[C@H](C)NS(=O)(=O)C(F)(F)F)ncc2Br)C1=O [Compound P-84, 5-bromo-N-[(4R)-2-ethyl-3-oxo-isoxazolidin-4-yl]-2-[(2S)-2-(trifluoromethylsulfonylamino)propoxy]pyridine-4-carboxamide]
≥ 80%: percent effect (mortality or growth inhibition) at 200 ppm [9]

C[C@@H](COc1cnc(Cl)c(C(=O)NC2(C#N)CC2)c1)N(C)S(=O)(=O)C(F)(F)F [Compound P-7, 2-chloro-N-(1-cyanocyclopropyl)-5-[(2S)-2-[methyl(trifluoromethylsulfonyl)amino]propoxy]pyridine-3-carboxamide]
≥ 80%: mortality at 200 ppm [2] | mortality at 24 ppm [6] | mortality at 12 ppm [5] | mortality at 200 ppm [7] | percent effect (mortality or growth inhibition) at 200 ppm [9]

C[C@@H](COc1cnc(Cl)c(C(=O)Nc2ccc(Cl)cc2F)c1)NS(=O)(=O)C(F)(F)F [Compound P-25, 2-chloro-N-(4-chloro-2-fluoro-phenyl)-5-[(2S)-2-(trifluoromethylsulfonylamino)propoxy]pyridine-3-carboxamide]
≥ 80%: mortality at 200 ppm [1] | percent effect (mortality or growth inhibition) at 200 ppm [10]

C[C@@H](COc1cnc(Cl)c(C(=O)NC2CC2)c1)NS(=O)(=O)C(F)(F)F [Compound P-1, 2-chloro-N-cyclopropyl-5-[(2S)-2-(trifluoromethylsulfonylamino)propoxy]pyridine-3-carboxamide]
≥ 80%: mortality at 200 ppm [1] | mortality at 200 ppm [2] | percent effect (mortality or growth inhibition) at 200 ppm [10] | mortality at 24 ppm [6] | percent effect (mortality or growth inhibition) at 200 ppm [3] | mortality at 12 ppm [5] | mortality at 200 ppm [7] | mortality at 200 ppm [8] | percent effect (mortality or growth inhibition) at 200 ppm [9]

CCN1OC[C@@H](NC(=O)c2cc(OC[C@H](C)NS(=O)(=O)C(F)(F)F)cnc2Cl)C1=O [Compound P-65, 2-chloro-N-[(4R)-2-ethyl-3-oxo-isoxazolidin-4-yl]-5-[(2S)-2-(trifluoromethylsulfonylamino)propoxy]pyridine-3-carboxamide]
≥ 80%: mortality at 200 ppm [1] | percent control (mortality, anti-feedant effect or growth inhibition) at 200 ppm [11]

C[C@@H](COc1cnc(Cl)c(C(=O)NC23CC(C2)C3)c1)NS(=O)(=O)C(F)(F)F [Compound P-5, N-(1-bicyclo[1.1.1]pentanyl)-2-chloro-5-[(2S)-2-(trifluoromethylsulfonylamino)propoxy]pyridine-3-carboxamide]
≥ 80%: mortality at 200 ppm [1] | percent effect (mortality or growth inhibition) at 200 ppm [10] | mortality at 24 ppm [6] | mortality at 12 ppm [5] | mortality at 200 ppm [8]

C[C@@H](COc1cnc(Cl)c(C(=O)Nc2ccc(F)cc2F)c1)NS(=O)(=O)C(F)(F)F [Compound P-23, 2-chloro-N-(2,4-difluorophenyl)-5-[(2S)-2-(trifluoromethylsulfonylamino)propoxy]pyridine-3-carboxamide]
≥ 80%: mortality at 200 ppm [1] | mortality at 200 ppm [2] | percent effect (mortality or growth inhibition) at 200 ppm [10] | mortality at 12 ppm [5]

Cc1ncc(OC[C@H](C)NS(=O)(=O)C(F)(F)F)cc1C(=O)NC(C)c1ncnn1-c1ccc(C#N)cn1 (stereo partly drawn) [Compound P-27, N-[1-[2-(5-cyano-2-pyridyl)-1,2,4-triazol-3-yl]ethyl]-2-methyl-5-[(2S)-2-(trifluoromethylsulfonylamino)propoxy]pyridine-3-carboxamide]
≥ 80%: percent effect (mortality or growth inhibition) at 200 ppm [10]

C[C@@H](COc1cnc(Cl)c(C(=O)Nc2ccc(C#N)cc2F)c1)NS(=O)(=O)C(F)(F)F [Compound P-22, 2-chloro-N-(4-cyano-2-fluoro-phenyl)-5-[(2S)-2-(trifluoromethylsulfonylamino)propoxy]pyridine-3-carboxamide]
≥ 80%: mortality at 200 ppm [1] | percent effect (mortality or growth inhibition) at 200 ppm [9]

Cc1ncc(OC[C@H](C)NS(=O)(=O)C(F)(F)F)cc1C(=O)NOCC1CC1 [Compound P-41, N-(cyclopropylmethoxy)-2-methyl-5-[(2S)-2-(trifluoromethylsulfonylamino)propoxy]pyridine-3-carboxamide]
≥ 80%: percent effect (mortality or growth inhibition) at 200 ppm [10]

Cc1cc(F)ccc1NC(=O)c1cc(OC[C@H](C)NS(=O)(=O)C(F)(F)F)cnc1Cl [Compound P-60, 2-chloro-N-(4-fluoro-2-methyl-phenyl)-5-[(2S)-2-(trifluoromethylsulfonylamino)propoxy]pyridine-3-carboxamide]
≥ 80%: mortality at 200 ppm [1] | percent effect (mortality or growth inhibition) at 200 ppm [10] | mortality at 12 ppm [5] | percent control (mortality, anti-feedant effect or growth inhibition) at 200 ppm [11]

Cc1nc(C(C)NC(=O)c2cc(OC[C@H](C)NS(=O)(=O)C(F)(F)F)cnc2C)no1 (stereo partly drawn) [Compound P-38, 2-methyl-N-[1-(5-methyl-1,2,4-oxadiazol-3-yl)ethyl]-5-[(2S)-2-(trifluoromethylsulfonylamino)propoxy]pyridine-3-carboxamide]
≥ 80%: percent effect (mortality or growth inhibition) at 200 ppm [10]
